From patent US12121521B2, “Uses of salt-inducible kinase (SIK) inhibitors for treating osteoporosis” (The General Hospital Corporation, priority 2016, dated 2024)

Molecular target: T1, SIK2 (Homo sapiens, UniProt Q9H0K1)
T1 construct: T7 phage fusion (most kinases) or DNA tag after HEK-293 expression; purchased DiscoverX (Fremont, CA), ScanEDGE; host or cells: T7 phage in E. coli BL21-derived host, or HEK-293
Assay: Kd determination for SIK2 (bound kinase measured by qPCR)
Assay type: binding
Protocol: FIGS. 5A to 5J: Small molecule SIK inhibitors regulate SOST and RANKL expression by osteocytes. (FIG. 5A) Structure of YKL-04-114 (top panel, left), YKL-05-093 (top panel, right), and YKL-05-093 Kd determination curves for SIK2 (bottom panels). For the Kd determination curves, the y-axis represents the amount of bound kinase measured by qPCR (see methods), and the x-axis represents the corresponding compound concentration in nM. (FIG. 5B) Ocy454 cells were treated with YKL-04-114 (10 μM) for the indicated times, followed by immunoblotting of whole cell lysates as indicated. (FIG. 5C) Ocy454 cells were treated with the indicated concentrations of YKL-04-114 for 60 minutes, followed by immunoblotting of whole cell lysates as indicated. […] Right: quantification of nuclear fraction (defined as nuclear/total) of HDAC4 or CRTC2. * indicates p<0.01 comparing treatment vs vehicle. […] Quantification of HDAC4 S246 phosphorylation, as assessed by densitometric analysis of immunoblots, is shown. * indicates p<0.01 comparing treatment vs vehicle. # indicates p<0.05 for the same comparison. […] (FIG. 5G) Control and SIK2/3 deficient cells were treated with YKL-05-093 (0.5 μM) for 4 hours and SOST transcript abundance was measured by RT-qPCR. (FIG. 5H) Control and CRTC2 shRNA cells were treated with PTH (1 nM) or YKL-05-093 (0.5 μM) for 4 hours and RANKL transcript abundance was measured by RT-qPCR. […]

T1 sequence (Q9H0K1 whole entry, the tested form may be a part): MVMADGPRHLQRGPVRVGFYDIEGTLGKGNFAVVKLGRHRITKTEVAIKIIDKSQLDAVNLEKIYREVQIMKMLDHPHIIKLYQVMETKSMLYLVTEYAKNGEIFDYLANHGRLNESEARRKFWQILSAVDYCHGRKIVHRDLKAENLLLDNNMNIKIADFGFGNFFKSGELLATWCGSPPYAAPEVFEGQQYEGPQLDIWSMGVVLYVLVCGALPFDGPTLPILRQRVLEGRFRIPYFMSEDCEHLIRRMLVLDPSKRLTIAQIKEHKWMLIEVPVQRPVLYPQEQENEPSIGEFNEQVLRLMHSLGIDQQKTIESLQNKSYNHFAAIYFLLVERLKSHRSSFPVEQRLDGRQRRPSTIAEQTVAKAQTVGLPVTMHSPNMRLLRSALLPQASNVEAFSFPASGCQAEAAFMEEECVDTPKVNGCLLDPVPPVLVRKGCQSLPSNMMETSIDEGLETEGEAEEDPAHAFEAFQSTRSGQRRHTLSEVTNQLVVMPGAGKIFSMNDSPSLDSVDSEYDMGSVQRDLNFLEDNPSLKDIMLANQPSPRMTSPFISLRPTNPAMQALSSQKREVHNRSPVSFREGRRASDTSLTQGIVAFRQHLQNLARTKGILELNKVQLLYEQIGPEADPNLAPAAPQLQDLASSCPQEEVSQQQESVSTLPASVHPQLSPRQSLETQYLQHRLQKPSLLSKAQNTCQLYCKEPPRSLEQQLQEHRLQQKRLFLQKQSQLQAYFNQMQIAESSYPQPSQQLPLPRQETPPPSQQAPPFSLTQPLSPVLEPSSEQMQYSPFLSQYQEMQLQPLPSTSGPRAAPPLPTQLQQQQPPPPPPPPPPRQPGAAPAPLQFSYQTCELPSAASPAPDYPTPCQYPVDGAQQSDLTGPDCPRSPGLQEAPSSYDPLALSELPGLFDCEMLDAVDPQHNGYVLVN

`COc1ccc(N2C(=O)N(c3c(C)cccc3C)Cc3cnc(Nc4ccc(C5CCN(C)CC5)c(OC)c4)nc32)c(OC)c1` [YKL-05-093] was tested. Which Kd did it give?
The Kd was 7.1 nM.
